Legend:
Assay type in all cases: cell-based
human TLR7 = target: T1, human TLR7 (Homo sapiens, UniProt Q9NYK1); assay: Human TLR7-specific reporter gene assay; conditions: for Agonistic Activity (μM) TLR7: EC50 in human TLR7-specific reporter gene assay, Inactive = EC50 >100 μM
T1 sequence (Q9NYK1 27-1049): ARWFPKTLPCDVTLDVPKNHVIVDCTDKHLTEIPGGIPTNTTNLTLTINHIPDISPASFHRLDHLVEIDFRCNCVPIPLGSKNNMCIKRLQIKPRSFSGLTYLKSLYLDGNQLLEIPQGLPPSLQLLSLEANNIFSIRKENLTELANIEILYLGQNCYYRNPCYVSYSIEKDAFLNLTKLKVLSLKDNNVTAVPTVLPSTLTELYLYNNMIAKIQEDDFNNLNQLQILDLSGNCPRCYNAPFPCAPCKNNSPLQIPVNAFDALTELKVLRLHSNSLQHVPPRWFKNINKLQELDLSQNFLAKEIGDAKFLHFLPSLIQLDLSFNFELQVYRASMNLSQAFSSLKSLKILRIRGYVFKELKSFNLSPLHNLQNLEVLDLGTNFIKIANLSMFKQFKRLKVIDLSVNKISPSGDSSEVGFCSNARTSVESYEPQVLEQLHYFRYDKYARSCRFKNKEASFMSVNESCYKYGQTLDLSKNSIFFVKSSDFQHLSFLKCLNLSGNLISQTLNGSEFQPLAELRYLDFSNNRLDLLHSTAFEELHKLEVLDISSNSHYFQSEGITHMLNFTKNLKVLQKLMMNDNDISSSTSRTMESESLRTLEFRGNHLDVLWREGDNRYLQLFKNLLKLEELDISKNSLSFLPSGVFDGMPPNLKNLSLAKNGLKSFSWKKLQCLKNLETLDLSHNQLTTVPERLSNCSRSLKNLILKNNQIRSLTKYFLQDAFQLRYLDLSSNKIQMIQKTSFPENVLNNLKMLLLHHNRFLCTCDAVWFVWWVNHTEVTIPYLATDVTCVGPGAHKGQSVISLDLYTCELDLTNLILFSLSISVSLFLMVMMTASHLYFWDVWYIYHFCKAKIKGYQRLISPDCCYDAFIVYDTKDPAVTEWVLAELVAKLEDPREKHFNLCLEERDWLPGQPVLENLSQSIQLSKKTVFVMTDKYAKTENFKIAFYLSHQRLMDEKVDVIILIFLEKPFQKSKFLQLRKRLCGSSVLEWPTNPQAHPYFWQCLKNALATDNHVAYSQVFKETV

human TLR8 = target: T2, human TLR8 (Homo sapiens, UniProt Q9NR97); assay: Human TLR8-specific reporter gene assay; conditions: for Agonistic Activity (μM) TLR8: EC50 in human TLR8-specific reporter gene assay, Inactive = EC50 >100 μM; for TLR8-agonistic potency/activity (in words): hTLR8 reporter gene assay
T2 sequence (Q9NR97 27-1041): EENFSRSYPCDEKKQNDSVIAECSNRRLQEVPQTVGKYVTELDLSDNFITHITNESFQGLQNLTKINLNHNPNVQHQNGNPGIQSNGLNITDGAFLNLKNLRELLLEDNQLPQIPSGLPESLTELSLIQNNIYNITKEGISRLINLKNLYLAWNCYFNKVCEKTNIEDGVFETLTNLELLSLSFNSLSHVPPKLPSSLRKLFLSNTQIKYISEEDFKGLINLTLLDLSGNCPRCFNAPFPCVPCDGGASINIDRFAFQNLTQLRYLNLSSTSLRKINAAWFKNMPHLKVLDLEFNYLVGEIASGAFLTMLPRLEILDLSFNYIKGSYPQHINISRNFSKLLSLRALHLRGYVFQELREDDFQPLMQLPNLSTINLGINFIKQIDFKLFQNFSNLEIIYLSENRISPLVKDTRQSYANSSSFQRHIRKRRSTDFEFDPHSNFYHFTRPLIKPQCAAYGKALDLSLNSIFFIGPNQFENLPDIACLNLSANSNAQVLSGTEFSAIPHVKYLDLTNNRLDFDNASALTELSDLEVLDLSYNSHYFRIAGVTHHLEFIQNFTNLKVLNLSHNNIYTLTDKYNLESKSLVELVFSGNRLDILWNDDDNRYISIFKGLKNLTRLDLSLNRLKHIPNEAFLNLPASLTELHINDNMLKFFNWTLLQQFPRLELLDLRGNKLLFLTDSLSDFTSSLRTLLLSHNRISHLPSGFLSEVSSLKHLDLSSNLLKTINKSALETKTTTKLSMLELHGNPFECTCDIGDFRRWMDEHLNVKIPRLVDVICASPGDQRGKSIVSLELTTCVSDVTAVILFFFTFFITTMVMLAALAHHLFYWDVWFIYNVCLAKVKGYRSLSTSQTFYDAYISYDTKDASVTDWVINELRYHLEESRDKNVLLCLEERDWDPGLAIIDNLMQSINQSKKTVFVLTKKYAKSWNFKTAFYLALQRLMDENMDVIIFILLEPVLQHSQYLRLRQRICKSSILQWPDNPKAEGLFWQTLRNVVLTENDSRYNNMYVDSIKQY

human TLR7 or human TLR8 = conditions: primary TLR8/TLR7 reporter gene assays, receptor not given

SMILES | Agonistic Activity (μM) TLR7 (human TLR7) | Agonistic Activity (μM) TLR8 (human TLR8) | further results
CCCc1nc2c(N)nc3ccc(-n4cc([Si](C)(C)C)nn4)cc3c2s1 [Compound 12f, 2-propyl-8-(4-(trimethylsilyl)-1H-1,2,3-triazol-1-yl)thiazolo[4,5-c]quinolin-4-amine] | Inactive | – | –
CCCc1nc2c(NS(=O)(=O)CCC)nc3ccccc3c2s1 [Compound 15t, N-(2-propylthiazolo[4,5-c]quinolin-4-yl)propane-1-sulfonamide] | Inactive | Inactive | –
CCCCCCCCCCCCCCCCNc1nc2ccccc2c2sc(CCC)nc12 [Compound 15c, N-hexadecyl-2-propylthiazolo[4,5-c]quinolin-4-amine] | Inactive | Inactive | –
CCCc1nc2c(N)nc3ccc(N=[N+]=[N-])cc3c2s1 [Compound 11, 8-azido-2-propylthiazolo[4,5-c]quinolin-4-amine] | – | – | agonistic activity (in words) (human TLR7 or human TLR8): inactive
CCCc1nc2c(N)nc3ccc(N)cc3c2s1 [Compound 10, 2-propylthiazolo[4,5-c]quinoline-4,8-diamine] | – | – | agonistic activity (in words) (human TLR7 or human TLR8): attenuated activity relative to 8c
CCCc1nc2c(NC(C)=O)nc3ccccc3c2s1 [Compound 15e, N-(2-propylthiazolo[4,5-c]quinolin-4-yl)acetamide] | Inactive | – | TLR8-agonistic potency/activity (in words) (human TLR8): virtually inactive
CCCc1cn(-c2ccc3nc(N)c4nc(CCC)sc4c3c2)nn1 [Compound 12d, 2-propyl-8-(4-propyl-1H-1,2,3-triazol-1-yl)thiazolo[4,5-c]quinolin-4-amine] | Inactive | Inactive | –
CCCc1nc2c(NS(=O)(=O)c3ccc(C)cc3)nc3ccccc3c2s1 [Compound 15v, 4-methyl-N-(2-propylthiazolo[4,5-c]quinolin-4-yl)benzenesulfonamide] | Inactive | Inactive | –
CCCCCCCCCc1nc2c(N)nc3ccccc3c2s1 [Compound 8h, 2-nonylthiazolo[4,5-c]quinolin-4-amine] | Inactive | Inactive | –
CCCCCCCCOC(=O)Nc1nc2ccccc2c2sc(CCC)nc12 [Compound 15p, octyl (2-propylthiazolo[4,5-c]quinolin-4-yl)carbamate] | Inactive | Inactive | –
CCCCS(=O)(=O)Nc1nc2ccccc2c2sc(CCC)nc12 [Compound 15u, N-(2-propylthiazolo[4,5-c]quinolin-4-yl)butane-1-sulfonamide] | Inactive | Inactive | –
CCCCOC(=O)Nc1nc2ccccc2c2sc(CCC)nc12 [Compound 15o, butyl (2-propylthiazolo[4,5-c]quinolin-4-yl)carbamate] | Inactive | Inactive | –
Nc1nc2ccccc2c2sc(CCCC(F)(F)F)nc12 [Compound 8q, 2-(4,4,4-trifluorobutyl)thiazolo[4,5-c]quinolin-4-amine] | – | – | TLR8-agonistic potency/activity (in words) (human TLR8): decrease in potency
C#CCCC(=O)Nc1nc2ccccc2c2sc(CCC)nc12 [Compound 15l, N-(2-propylthiazolo[4,5-c]quinolin-4-yl)pent-4-ynamide] | Inactive | – | –
CCCc1nc2c(N)nc3ccc(-n4cc(C(C)(C)O)nn4)cc3c2s1 [Compound 12a, 2-(1-(4-amino-2-propylthiazolo[4,5-c]quinolin-8-yl)-1H-1,2,3-triazol-4-yl)propan-2-ol] | Inactive | Inactive | –
CCCc1nc2c(NC(=O)CCN=[N+]=[N-])nc3ccccc3c2s1 [Compound 15k, 3-azido-N-(2-propylthiazolo[4,5-c]quinolin-4-yl)propanamide] | Inactive | – | –
CCCc1nc2c(NC(=O)OC)nc3ccccc3c2s1 [Compound 15m, methyl (2-propylthiazolo[4,5-c]quinolin-4-yl)carbamate] | Inactive | Weak | –
CCCCCCCc1nc2c(N)nc3ccccc3c2s1 [Compound 8g, 2-heptylthiazolo[4,5-c]quinolin-4-amine] | Inactive | Inactive | –
CCCc1nc2c(N)nc3ccc(-n4ccnn4)cc3c2s1 [Compound 12g, 2-propyl-8-(1H-1,2,3-triazol-1-yl)thiazolo[4,5-c]quinolin-4-amine] | Inactive | Inactive | –
CCCc1nc2c(N)nc3ccc(-n4cc(-c5ccccc5)nn4)cc3c2s1 [Compound 12c, 8-(4-phenyl-1H-1,2,3-triazol-1-yl)-2-propylthiazolo[4,5-c]quinolin-4-amine] | Inactive | Inactive | –
CC(C)c1nc2c(N)nc3ccccc3c2s1 [Compound 8i, 2-isopropylthiazolo[4,5-c]quinolin-4-amine] | – | – | reduction in TLR8-agonistic potency (human TLR8; isopropyl at C2, fold reduction): approximately ten-fold; attenuation of activity in TLR7-specific reporter gene assays (human TLR7; isopropyl at C2, fold attenuation): about two-fold
CCCc1nc2c(N)nc3ccc(-n4cc(CO)nn4)cc3c2s1 [Compound 12b, (1-(4-amino-2-propylthiazolo[4,5-c]quinolin-8-yl)-1H-1,2,3-triazol-4-yl)methanol] | Inactive | Inactive | –
CCCc1nc2c(NS(C)(=O)=O)nc3ccccc3c2s1 [Compound 15r, N-(2-propylthiazolo[4,5-c]quinolin-4-yl)methanesulfonamide] | Inactive | – | –
CCCc1nc2c(NS(=O)(=O)CC)nc3ccccc3c2s1 [Compound 15s, N-(2-propylthiazolo[4,5-c]quinolin-4-yl)ethanesulfonamide] | Inactive | Inactive | –
CCCc1nc2c(NC(=O)OCC)nc3ccccc3c2s1 [Compound 15n, ethyl (2-propylthiazolo[4,5-c]quinolin-4-yl)carbamate] | Inactive | Inactive | –
CCCCCc1cn(-c2ccc3nc(N)c4nc(CCC)sc4c3c2)nn1 [Compound 12e, 8-(4-pentyl-1H-1,2,3-triazol-1-yl)-2-propylthiazolo[4,5-c]quinolin-4-amine] | Inactive | Inactive | –
CCCCCc1nc2c(N)nc3ccccc3c2s1 [Compound 8e, 2-pentylthiazolo[4,5-c]quinolin-4-amine] | – | – | TLR8-agonistic potency/activity (in words) (human TLR8): attenuation of potency
CCCCCCc1nc2c(N)nc3ccccc3c2s1 [Compound 8f, 2-hexylthiazolo[4,5-c]quinolin-4-amine] | Inactive | Inactive^a | –

From article PMC3577938 (Organic & biomolecular chemistry, 2013)
